What was measured:
[1] = tested on: human foreskin fibroblasts (HF) CRL-4001; assay: MTT cell viability assay, fibroblasts; type: cell-based; conditions: 100 µM, 72 h
From the text: (§1) The human malignant melanoma cell line IGR39, human triple-negative breast cancer MDA-MB-231, and human pancreatic carcinoma cell line Panc-1 were obtained from the American Type Culture Collection (ATCC, Manassas, VA, USA). Human foreskin fibroblasts (HF) CRL-4001 were originally obtained from ATCC and kindly provided by Prof. Helder Santos (University of Helsinki, Finland). Primary prostate carcinoma PPC-1 cell line was kindly provided by Prof. Tambet Teesalu (University of Tartu, Estonia). All cell lines were cultured in Dulbecco’s Modified Eagle’s GlutaMAX medium (Gibco (Carlsbad, CA, USA)), supplemented with 10,000 U/mL penicillin, 10 mg/mL streptomycin (Gibco), and 10% fetal bovine serum (Gibco). Cell cultures were grown at 37 °C in a humidified atmosphere containing 5% CO2. They were used until the passage of 20.
(§2) The effect of synthesized compounds on cell viability was studied using 3-(4,5-dimethylthiazol-2-yl)-2,5-diphenyltetrazolium bromide (MTT; Sigma-Aldrich Co., St Louis, MO, USA) assay, as described elsewhere. To summarize, the cells were seeded in triplicates in 96-well Corning plates (IGR39, MDA-MB-231, Panc-1 and PPC1: 4 × 10^3 cells/well; HF: 5 × 10^3 cells/well). The cells were treated with 100 μM of tested compounds after 24 h of incubation. After 72 h, the MTT reagent was added and the formazan crystals that had formed were dissolved in DMSO (Sigma-Aldrich Co., St. Louis, MO, USA). The absorbance was determined with a multidetection microplate reader at 570 and 630 nm.
(§3) The compound serial dilutions ranging from 50 µM to 1.56 µM were introduced to the cells. The Hill equation was used to calculate the EC50 value, or the concentration of a compound that results in a 50% reduction in the metabolic activity of cells.

[2] = tested on: human melanoma IGR39 cell line; assay: MTT cell viability assay, melanoma IGR39; type: cell-based; conditions: 100 µM, 72 h, MTT
From the text: as §1, §2, §3

[3] = Ferric reducing antioxidant power (FRAP) assay; conditions: for reducing power activity compared to the control antioxidant: vs protocatechuic acid; for FRAP reducing power (Fe^2+): absorbance at 593 nm
From the text: The ferric reducing antioxidant power (FRAP) assay was used to evaluate the antioxidant potential of new compounds 2–17. Antioxidant assays are based on determining reduction power reactions (e.g., reduction Fe^3+ to Fe^2+) or scavenging free radicals (DPPH, ABTS). The FRAP assay is based on the method of single electron transfer (SET), measuring the reduction in the complex of ferric ions (Fe^3+)-ligand to the blue ferrous complex (Fe^2+). This method uses 2,4,6-tripyridyl-s-triazine (TPTZ) as the linking ligand to the iron. The antioxidant activity of the synthesized compounds was compared with that of the well-known antioxidant protocatechuic acid. […] PCA is a building block for pharmaceuticals and is widely used to produce many medicinal products such as veratridine (sodium channel inactivation inhibitor), erlotinib (antineoplastic), Picatin II (treatment of hepatitis B), itopride hydrochloride (gastrointestinal motility drug). PCA can also cause the induction of apoptosis of human leukemia cells. Moreover, the antioxidant activity of PCA is based on the reduction in free radical formation via the up-regulation of genes encoding enzymes with neutralizing activities.
Antioxidant activity was determined as an increase in absorbance at 593 nm, and the results were expressed as of Fe^2+ μmol/L and in relation to antioxidants, and protocatechuic acid, as positive control. The FRAP reagent contained 2.5 mL of 10 mM TPTZ solution in 40 mM HCl as well as 2.5 mL of FeCl3 (20 mM) and 25 mL of acetate buffer (0.3 M, pH = 3.6). Then, 100 μL of analyzed compounds (20 mM) were mixed with 3 mL of the FRAP reagent. The absorbance of the reaction mixture was measured spectrophotometrically at 593 nm using a UV-1280 UV-VIS spectrophotometer (Shimadzu Corporation, Kyoto, Japan). To compose the calibration curve, five concentrations of FeSO4·7H2O (5, 10, 15, 20, 25 μM) were used, and the absorbance was measured as a sample solution.

[4] = tested on: tested cancer cell lines (IGR39, PPC-1, MDA-MB-231, Panc-1); assay: MTT cell viability assay, statements on the tested cancer cell lines together; type: cell-based, human; conditions: for selectivity against cancer cells: after determination of the dose-effect correlation; for inhibition of cancer cell viability: 100 µM, 72 h, MTT
Method: as §2, §3

[5] = tested on: prostate carcinoma PPC-1 cell line; assay: MTT cell viability assay, prostate carcinoma PPC-1; type: cell-based, human; conditions: 100 µM, 72 h, MTT
From the text: as §1, §2, §3

Row | melting point [°C] | Structure (SMILES) | effect on fibroblasts compared to cancer cell lines [1] | effect on cell viability compared among the cell lines [2] | reducing power activity compared to the control antioxidant [3] | FRAP reducing power (Fe^2+) [3] [µmol/L] | selectivity against cancer cells [4] | effect on cell viability compared among the cell lines [5] | inhibition of cancer cell viability [4] | antioxidant activity (FRAP) relative to protocatechuic acid [3] [times]
1 | 122 to 123 | O=C(NN=Cc1ccccc1)C1CC(=O)N(c2ccc(Nc3ccccc3)cc2)C1 (stereo not shown) [Compound 2, N′-benzylidene-5-oxo-1-(4-(phenylamino)phenyl)pyrrolidine-3-carbohydrazide] | affected fibroblasts more than the tested cancer cell lines | strongest effect on melanoma cells | higher than those of known antioxidants used as the controls |  |  |  |  | 
2 | 198 to 199 | O=C(NN=Cc1ccc(Br)cc1)C1CC(=O)N(c2ccc(Nc3ccccc3)cc2)C1 (stereo not shown) [Compound 3, N′-(4-bromobenzylidene)-5-oxo-1-(4-(phenylamino)phenyl)pyrrolidine-3-carbohydrazide] |  | strongest effect on melanoma cells | higher than those of known antioxidants used as the controls | 120.08 | nonselective against cancer cells |  |  | 
3 | 209 to 210 | O=C(NN=Cc1ccc(Cl)cc1)C1CC(=O)N(c2ccc(Nc3ccccc3)cc2)C1 (stereo not shown) [Compound 4, N′-(4-chlorobenzylidene)-5-oxo-1-(4-(phenylamino)phenyl)pyrrolidine-3-carbohydrazide] |  |  |  |  | nonselective against cancer cells | most active against the prostate carcinoma cell line |  | 
4 | 218 to 219 | CN(C)c1ccc(C=NNC(=O)C2CC(=O)N(c3ccc(Nc4ccccc4)cc3)C2)cc1 (stereo not shown) [Compound 7, N′-(4-(dimethylamino)benzylidene)-5-oxo-1-(4-(phenylamino)phenyl)pyrrolidine-3-carbohydrazide] | affected fibroblasts more than the tested cancer cell lines |  | higher than those of known antioxidants used as the controls |  |  |  |  | 
5 | 239 to 240 | CCN(CC)c1ccc(C=NNC(=O)C2CC(=O)N(c3ccc(Nc4ccccc4)cc3)C2)c(O)c1 (stereo not shown) [Compound 8, N′-(4-(diethylamino)-2-hydroxybenzylidene)-5-oxo-1-(4-(phenylamino)phenyl)pyrrolidine-3-carbohydrazide] | affected fibroblasts more than the tested cancer cell lines | strongest effect on melanoma cells | higher than those of known antioxidants used as the controls | 120.24 |  |  |  | 
6 | 192 to 193 | O=C(NN=Cc1ccccc1[N+](=O)[O-])C1CC(=O)N(c2ccc(Nc3ccccc3)cc2)C1 (stereo not shown) [Compound 9, N′-(2-nitrobenzylidene)-5-oxo-1-(4-(phenylamino)phenyl)pyrrolidine-3-carbohydrazide] |  | strongest effect on melanoma cells | higher than those of known antioxidants used as the controls | 118.32 |  |  | less than 20% | 
7 | 193 to 194 | CSc1ccc(C=NNC(=O)C2CC(=O)N(c3ccc(Nc4ccccc4)cc3)C2)cc1 (stereo not shown) [Compound 10, N′-(4-(methylthio)benzylidene)-5-oxo-1-(4-(phenylamino)phenyl)pyrrolidine-3-carbohydrazide] | affected fibroblasts more than the tested cancer cell lines | strongest effect on melanoma cells |  |  |  |  |  | 
8 | 234 to 235 | O=C(NN=Cc1ccc[nH]1)C1CC(=O)N(c2ccc(Nc3ccccc3)cc2)C1 (stereo not shown) [Compound 11, N′-((1H-pyrrol-2-yl)methylene)-5-oxo-1-(4-(phenylamino)phenyl)pyrrolidine-3-carbohydrazide] |  |  |  |  |  | most active against the prostate carcinoma cell line | less than 20% | 
9 | 240 to 241 | O=C(NN=Cc1ccc(Br)s1)C1CC(=O)N(c2ccc(Nc3ccccc3)cc2)C1 (stereo not shown) [Compound 12, N′-((5-bromothiophen-2-yl)methylene)-5-oxo-1-(4-(phenylamino)phenyl)pyrrolidine-3-carbohydrazide] | affected fibroblasts more than the tested cancer cell lines |  | higher than those of known antioxidants used as the controls |  |  | most active against the prostate carcinoma cell line |  | 
10 | 225 to 226 | CC(=NNC(=O)C1CC(=O)N(c2ccc(Nc3ccccc3)cc2)C1)c1ccccc1 (stereo not shown) [Compound 15, 5-Oxo-1-(4-(phenylamino)phenyl)-N′-(1-phenylethylidene)pyrrolidine-3-carbohydrazide] |  | strongest effect on melanoma cells | higher than those of known antioxidants used as the controls | 123.05 |  |  | less than 20% | 
11 | 230 to 231 | CC(=NNC(=O)C1CC(=O)N(c2ccc(Nc3ccccc3)cc2)C1)c1ccc(N)cc1 (stereo not shown) [Compound 16, N′-(1-(4-aminophenyl)ethylidene)-5-oxo-1-(4-(phenylamino)phenyl)pyrrolidine-3-carbohydrazide] |  | strongest effect on melanoma cells | higher than those of known antioxidants used as the controls | 132.14 |  |  | less than 20% | 1.2
12 | 239 to 240 | CC(=NNC(=O)C1CC(=O)N(c2ccc(Nc3ccccc3)cc2)C1)c1cccc(N)c1 (stereo not shown) [Compound 17, N′-(1-(3-aminophenyl)ethylidene)-5-oxo-1-(4-(phenylamino)phenyl)pyrrolidine-3-carbohydrazide] | affected fibroblasts more than the tested cancer cell lines |  | higher than those of known antioxidants used as the controls | 129.28 |  | most active against the prostate carcinoma cell line |  | 
13 |  | O=C(O)c1ccc(O)c(O)c1 [protocatechuic acid, 3,4-dihydroxybenzoic acid, reference compound] |  |  |  | 109.05 |  |  |  | 
